From US6572603B1, “Vitamin d solution holder and containers for transfusions” (Otsuka Pharmaceutical Factory, Inc., priority 1998, dated 2003)
Counter-ions that a name gives are not always drawn.

Assays:
[1] = Vitamin content of solution (C) in polyolefin holders after autoclaving and storage at 40° C. for four months, measured through HPLC (Example 3); format: physicochemical
Procedure: Solution (C) (4 ml) prepared in Example 1 was charged into each of holders made of the materials shown in Table 3, to thereby obtain a holder which contains a solution of vitamin D3. Each of these holders containing a solution of vitamin D3 was subjected to autoclaving and wrapped in a nylon multi-layered-film bag together with a deoxidizing agent (trade name: Ageless, product of Mitsubishi Gas Chem. Co., Inc.). The thus-wrapped holders were allowed to stand at 40° C. for four months. Thereafter, the content of each vitamin in each holder was measured through HPLC. The content of each vitamin is represented by a percentage (%) of the initially incorporated amount.

[2] = Vitamin contents in transfusion fluid containers of Examples 4 and 5 after autoclaving and 40° C. four-month storage, bioassay (vitamin B12, biotin) or HPLC (other vitamins); format: physicochemical
Procedure: In a holder produced from a three-layered film (the thickness of each layer: 10 μm) in which the outer and the inner layers are made of polyethylene and the intermediate layer is made of ethylene.tetracyclododecene copolymer (trade name: Apel, product of Mitsui Chemicals, Inc.), solution (C) (4 ml) was charged and the inlet was melt-sealed. In a two-compartment container, the prepared holder was attached to one of the compartments. […] The above-described transfusion fluid containers in Examples 4 and 5 were allowed to stand at 40° C. for four months after autoclaving. Thereafter, the contents of vitamins in the containers were measured through a bioassay according to Pharmacopoeia of Japan (for vitamin B12 and biotin) or through HPLC (for other vitamins). The content of each vitamin is represented by a percentage (%) of the initially incorporated amount.

[3] = holder No. 1, polyethylene, 30 μm, resin 7.4 cm^3 per μmol vitamin D, 40° C., 4 months
[4] = holder No. 1, polyethylene, 30 μm, resin 7.4 cm^3 per μmol vitamin D, after sterilization
[5] = holder No. 2, polyethylene, 100 μm, resin 18.5 cm^3 per μmol vitamin D, 40° C., 4 months
[6] = holder No. 2, polyethylene, 100 μm, resin 18.5 cm^3 per μmol vitamin D, after sterilization
[7] = holder No. 3, polypropylene, 30 μm, resin 7.4 cm^3 per μmol vitamin D, 40° C., 4 months
[8] = holder No. 3, polypropylene, 30 μm, resin 7.4 cm^3 per μmol vitamin D, after sterilization
[9] = holder No. 4, polyethylene, 250 μm, resin 123.2 cm^3 per μmol vitamin D, 40° C., 4 months
[10] = holder No. 4, polyethylene, 250 μm, resin 123.2 cm^3 per μmol vitamin D, after sterilization
[11] = holder No. 5, polypropylene, 250 μm, resin 123.2 cm^3 per μmol vitamin D, 40° C., 4 months
[12] = holder No. 5, polypropylene, 250 μm, resin 123.2 cm^3 per μmol vitamin D, after sterilization
[13] = Example 4 transfusion fluid container, 40° C., 4 months
[14] = Example 4 transfusion fluid container, immediately after sterilization
[15] = Example 5 transfusion fluid container, 40° C., 4 months
[16] = Example 5 transfusion fluid container, immediately after sterilization

Compound	Vitamin content (%) of initially incorporated amount [1, 3] [%]	Vitamin content (%) of initially incorporated amount [1, 4] [%]	Vitamin content (%) of initially incorporated amount [1, 5] [%]	Vitamin content (%) of initially incorporated amount [1, 6] [%]	Vitamin content (%) of initially incorporated amount [1, 7] [%]	Vitamin content (%) of initially incorporated amount [1, 8] [%]	Vitamin content (%) of initially incorporated amount [1, 9] [%]	Vitamin content (%) of initially incorporated amount [1, 10] [%]	Vitamin content (%) of initially incorporated amount [1, 11] [%]	Vitamin content (%) of initially incorporated amount [1, 12] [%]	Vitamin content, percentage (%) of the initially incorporated amount [2, 13] [%]	Vitamin content, percentage (%) of the initially incorporated amount [2, 14] [%]	Vitamin content, percentage (%) of the initially incorporated amount [2, 15] [%]	Vitamin content, percentage (%) of the initially incorporated amount [2, 16] [%]
CC(=O)Oc1c(C)c(C)c2c(c1C)CCC(C)(CCC[C@H](C)CCC[C@H](C)CCCC(C)C)O2 (some centres unmarked) [Vitamin E, tocopherol acetate]	98.3	98.7	99.7	99.4	97.3	97.6	95.6	98.2	95.3	97.6	95.1	94.9	94.8	95.3
Cc1ncc(C[n+]2csc(CCO)c2C)c(N)n1 [Thiamin hydrochloride (B1), thiamin hydrochloride]	–	–	–	–	–	–	–	–	–	–	87.4	93.8	86.6	93.5
CC1=C(C/C=C(\C)CCC[C@H](C)CCC[C@H](C)CCCC(C)C)C(=O)c2ccccc2C1=O [Vitamin K, phytonadione]	91.3	95.4	90.8	94.7	91.3	96.1	89.1	94.3	88.7	93.9	95.3	96.2	95.4	95.8
CCCCCCCCCCCCCCCC(=O)OC/C=C(C)/C=C/C=C(C)/C=C/C1=C(C)CCCC1(C)C [Vitamin A, retinol palmitate]	80.7	91.1	81.3	90.9	81.2	90.7	78.3	89.1	77.8	88.9	84.5	87.2	83.9	86.5
CC(C)(CO)[C@@H](O)C(=O)NCCCO [Panthenol, panthenol]	–	–	–	–	–	–	–	–	–	–	96.9	97.4	97.6	98.5
NC(=O)c1cccnc1 [Nicotinamide, nicotinamide]	–	–	–	–	–	–	–	–	–	–	97.8	98.6	98.5	98.2
Cc1cc2nc3c(=O)[nH]c(=O)nc-3n(C[C@H](O)[C@H](O)[C@H](O)COP(=O)(O)O)c2cc1C [Vitamin B2, sodium riboflavin phosphate]	90.7	94.8	91.2	96.3	91.0	95.4	90.9	94.6	91.2	95.3	83.2	86.5	84.3	85.9
Nc1nc2ncc(CNc3ccc(C(=O)N[C@@H](CCC(=O)O)C(=O)O)cc3)nc2c(=O)[nH]1 [Folic acid, folic acid]	–	–	–	–	–	–	–	–	–	–	97.5	97.8	99.1	98.3
cyanocobalamin [Cyanocobalamin (B12)]	–	–	–	–	–	–	–	–	–	–	89.2	91.3	90.5	96.5
Cc1ncc(CO)c(CO)c1O.Cl [Pyridoxine hydrochloride (B6), pyridoxine hydrochloride]	–	–	–	–	–	–	–	–	–	–	100.1	100.5	99.8	99.7
O=C1O[C@H]([C@@H](O)CO)C(O)=C1O [Vitamin C, ascorbic acid]	94.3	96.2	95.4	97.1	94.2	97.3	94.8	97.5	93.1	96.8	98.3	98.7	97.5	97.8
O=C(O)CCCC[C@@H]1SC[C@@H]2NC(=O)N[C@@H]21 [Biotin, biotin]	–	–	–	–	–	–	–	–	–	–	99.8	100.4	100.3	98.7
